According to PMC12287357, “Bacterial effectors mediate kinase reprogramming through mimicry of conserved eukaryotic motifs” (EMBO Reports, 2025):
Square brackets hold non-standard residues; d marks the D form. Peptide text beside a SMILES is read from it. pY = N[C@@H](Cc1ccc(OP(=O)(O)O)cc1)C(=O)O; pS = N[C@@H](COP(=O)(O)O)C(=O)O

Target: T1, His6STAT3^127-715 (Homo sapiens, UniProt P40763)
T1 construct: made in house; host or cells: E. coli BL21 (DE3)
Test: Biolayer interferometry (BLI): SteE^138-148 phosphopeptides binding to recombinant STAT3
Conditions: Octet R8, 25 °C, biotinylated peptide immobilised on streptavidin sensors, pH 7.7, 0.005% Tween-20, steady-state one-site fit, read-out: Kd (affinity of SteE^138-148 phosphorylated peptide for STAT3)
Procedure: Recombinant Salmonella Typhimurium His6-SteE^ΔN20 and human His6-STAT3^127-715 were ligated into pET49 vector using Gibson Assembly; the N-terminal His6-tag is cleavable with HRV 3 C protease.
Binding affinities of His6-STAT3^127-715 to SteE peptides were derived from […] measured on an Octet R8 system (Sartorius) at 25 °C. Biotinylated SteE peptides were synthesised by the Chemical Biology Science Technology Platform at the Francis Crick Institute and dissolved from lyophilised stock in the respective protein buffer to which 0.005% Tween-20 was added (BLI buffer). Appropriate serial dilutions of His6-STAT3^127-715 were prepared in 25 mM HEPES, 200 mM NaCl, 10 mM MgCl2, 0.5 mM TCEP at pH 7.7. SteE peptides were immobilised on Streptavidin (SA) sensors at 0.2 µg/mL by incubation until the linear signal increase started to plateau (up to 160 s), followed by a sensor wash in BLI buffer for 50 s to stabilise the baseline. Association was recorded by incubating the sensors with His6-STAT3^127-715 for 300 s. Subsequent dissociation in BLI buffer was followed for up to 300 s. Data were acquired using Octet BLI Discovery software 12.2.2.20 and processed with Octet BLI Analysis software 12.2.2.4 by subtraction of reference wells without protein and y alignment of the data to the baseline. […]

T1 sequence (P40763 127-715): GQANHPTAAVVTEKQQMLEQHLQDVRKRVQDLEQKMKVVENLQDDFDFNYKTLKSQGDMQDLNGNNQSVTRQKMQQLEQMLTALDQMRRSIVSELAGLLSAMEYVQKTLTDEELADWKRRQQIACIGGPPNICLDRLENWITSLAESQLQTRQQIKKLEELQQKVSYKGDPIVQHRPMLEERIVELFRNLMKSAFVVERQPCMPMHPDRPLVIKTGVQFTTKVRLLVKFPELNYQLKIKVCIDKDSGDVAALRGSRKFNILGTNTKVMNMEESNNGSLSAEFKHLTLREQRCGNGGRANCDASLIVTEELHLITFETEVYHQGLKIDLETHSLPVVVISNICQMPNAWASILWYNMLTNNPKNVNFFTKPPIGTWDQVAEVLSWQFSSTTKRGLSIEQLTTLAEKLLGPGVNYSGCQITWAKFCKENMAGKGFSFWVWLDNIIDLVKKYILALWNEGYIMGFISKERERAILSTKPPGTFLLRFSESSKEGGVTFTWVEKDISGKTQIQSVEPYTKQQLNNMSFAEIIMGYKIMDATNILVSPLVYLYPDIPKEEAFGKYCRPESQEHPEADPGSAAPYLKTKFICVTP

## CC[C@H](C)[C@H](NC(=O)[C@H](Cc1ccc(OP(=O)(O)O)cc1)NC(=O)CNC(=O)[C@H](COP(=O)(O)O)NC(=O)[C@@H]1CCCN1C(=O)[C@@H]1CCCN1C(=O)[C@@H](N)CC(N)=O)C(=O)N[C@@H](C)C(=O)N[C@@H](CCC(N)=O)C(=O)N[C@@H](Cc1ccc(O)cc1)C(=O)N[C@@H](CCCNC(=N)N)C(=O)O [SteE_pS141pY143] (H-NPP[pS]G[pY]IAQYR-OH)
  Kd: 1.4 ± 0.08 µM
